In PMC11110755, “Structure-based virtual screening of unbiased and RNA-focused libraries to identify new ligands for the HCV IRES model system” (RSC Medicinal Chemistry, 2024):
Where “and” joins values, the source holds several entries; their conditions need not be identical. Equal entries are not always repeated. Entries after “also recorded” stand apart in the source; their conditions may differ. Where two headings read alike, the source gives them in different places.

What was measured:
HCV IRES subdomain IIa [1] = target: HCV IRES subdomain IIa; parameters: method as in PMID 16279767; settings: previously reported; read-out: KD (MS assay); cited from earlier work
HCV IRES subdomain IIa [2] = system: HCV IRES subdomain IIa; parameters: method as in PMID 16279767, PMID 24930829, PMID 27775338; settings: previously reported, Fig. 1; read-out: EC50 (FRET assay); cited from earlier work
HCV IRES subdomain IIa [3] = experiment: FRET assay monitoring ligand-induced conformational change of Cy3/Cy5-labelled HCV IRES subdomain IIa; assay type: biochemical, hepatitis C virus; settings: for FRET-signal change / conformational change of HCV IRES subdomain IIa, in words: pre-screening 1000, 100, 10 and 0.001 μM
Protocol: For the FRET assay, a two stranded HCV IRES subdomain IIa carrying a 5′-Cy3-label on one and 5′-Cy5-label on the other strand (Cy3-[…], Cy5-[…], Biomers.net GmbH) was used as described previously.[22,53] All samples containing labelled RNA were treated under light protection. FRET experiments were performed on a Tecan Spark 10 M plate reader (excitation/emission: 480/670 nm) using black half area 96 well microplates (Greiner Bio-One), based on a protocol by Zhou et al.[53] The 5′-Cy3- and 5′-Cy5-labelled single strands were annealed by heating to 75 °C in FRET buffer (10 mM HEPES pH 7.0, 2 mM MgCl2) and cooled down to room temperature for at least 20 min. The 5′-Cy3/Cy5-labelled RNA was diluted to 100 nM in FRET buffer and supplemented with compounds 8–28 in appropriate concentrations. Compounds 4 and 5 were used as positive controls. For the initial screening, compounds were added in final concentrations of 1000, 100, 10 and 0.001 μM (Fig. S4 ^†). If a concentration dependent reduction of the FRET signal (Cy5-emission) was observed, EC50-values were determined using ligand concentrations from 1 mM to 100 nM in 3.16-fold (semi-logarithmic) dilution series. For those compounds, the Cy3 emission was measured at 535 nm to confirm a conformational change dependent reduction in the Cy5 emission signal via Cy3 emission increase (Fig. S7 ^†). For each experiment, one DMSO negative control was carried out. The final DMSO concentration was always 2%. Excitation and emission spectra were recorded for the Cy3/Cy5-labelled RNA (100 nM) in FRET buffer to confirm excitation (Cy3) and emission (Cy5) wavelength as well as for each compound (1 μM) in FRET buffer to exclude any interference with the cyanine dyes. All measurements were performed at least as triplicates for screening and EC50-determination.
(§1) FRET experiments were analyzed using GraphPad Prism (version 8.0.1., GraphPad Software, Boston, Massachusetts USA, https://www.graphpad.com).

[4] = system: HCV IRES subdomain IIa in presence of total RNA from yeast; experiment: Selectivity FRET assay in presence of competing total RNA from yeast; assay type: biochemical, hepatitis C virus; settings: 1:5 m/m HCV IRES : total RNA from yeast
Protocol: For the HCV IRES-binding compounds (4, 5, 8–13, 8a–8c), a selectivity FRET assay in presence of total RNA from yeast (Roche) was performed. The ratio of the FRET HCV IRES subdomain IIa construct and the total RNA was set to 1 : 5 m/m. The preparation of the labelled RNA and the compounds was the same as in the binding assay. The yeast RNA was diluted to 7.88 mg L^−1 and supplemented with 100 nM HCV IRES and appropriate concentrations of the compounds (3.16-fold dilution series) in FRET buffer (Fig. S10 ^†). For each compound, triplicate measurements were performed. For each experiment, one DMSO negative control was carried out. The final DMSO concentration was always 2%.
as §1

HCV IRES subdomain IIa [5] = assay type: binding, hepatitis C virus; settings: for Kd / MST KD: 30 nM Cy5-labelled RNA, 10 mM HEPES pH 7.0, 2 mM MgCl2, 2% DMSO, ≥ = no saturation, n.b. no binding observed; for Kd: read-out: MST KD; for binding to HCV IRES subdomain IIa (MST-shift), in words: pre-screening 1000 (or 316), 100, 10 and 0.001 μM
Protocol: For the MST assay, the same sequence of the two stranded HCV IRES subdomain IIa as for the FRET assay was used. One strand was 5′-Cy5-labelled and the other strand was unmodified ([…], Cy5-[…], Biomers.net GmbH). All samples containing labelled RNA were treated under light protection. MST experiments were performed on a Monolith NT.115 from NanoTemper Technologies using standard uncoated capillaries. The strands were annealed by heating to 75 °C in MST buffer (10 mM HEPES pH 7.0, 2 mM MgCl2) and cooled down to room temperature for at least 20 min. The 5′-Cy5-labelled HCV IRES domain IIa RNA was diluted to 30 nM in MST buffer and supplemented with compounds 8–25 in appropriate concentrations. Compounds 4 and 5 were used as positive controls. For the initial screening, compounds were added to final concentrations of 1000 (or 316 if limited by solubility), 100, 10 and 0.001 μM (Fig. S5 ^†). If a concentration-dependent shift of thermophoresis was observed, KD-values were determined using concentrations ranging from 1 mM (if permitted by solubility, otherwise starting from 316 or 100 μM) to 0.01 μM in a 3.16-fold (semi-logarithmic) dilution series. For each experiment, one DMSO negative control was carried out. Final DMSO concentration was always 2%.
(§2) Off-target counter screens by MST were performed as described previously.[31,84] Briefly, the 5′-Cy5-labelled Tte preQ1-Riboswitch aptamer domain (Biomers.net GmbH) was heated to 75 °C for 5 min, cooled down to room temperature for at least 20 min and then diluted to 20 nM in MST buffer (50 mM Tris-HCl pH 7.5, 100 mM KCl, 25 mM MgCl2) and supplemented with compounds 4, 5, 8–13, 18, 21, 22 and 26 to final concentrations of 1000, 100, 10 and 0.001 μM. PreQ1 was used as a positive control. The 5′-Cy5-labelled B. angulatum SAM VI-Riboswitch aptamer domain (Eurofins Genomics GmbH) was heated to 75 °C for 5 min, cooled down to room temperature for at least 20 min and then diluted to 20 nM in MST buffer (50 mM Tris-HCl pH 7.5, 100 mM KCl, 25 mM MgCl2) and supplemented with compounds 5, 9 and 28 to final concentrations of 1000, 100, 10 and 0.001 μM. SAM was used as a positive control. For each experiment, one DMSO negative control was carried out. The final DMSO concentration was 2%. All measurements were performed at least as duplicates for pre-screening and triplicates for KD-determination. MST measurements were analyzed from signals after 18 s laser on-time using the MO.Affinity Analysis software (version 2.3) and exported for statistical analysis and plotting in GraphPad Prism (version 8.0.1., GraphPad Software, Boston, Massachusetts USA, https://www.graphpad.com).

[6] = system: SAM VI-Riboswitch aptamer domain; experiment: MST off-target counter screen, SAM VI-riboswitch aptamer domain; assay type: binding, B. angulatum
Protocol: as §2

[7] = target: Tte preQ1-Riboswitch aptamer domain; experiment: MST off-target counter screen, preQ1-riboswitch aptamer domain; assay type: binding, Thermoanaerobacter tengcongensis; settings: for preQ1-riboswitch binding / selectivity (MST-shift), in words: 1000, 100, 10 and 0.001 μM
Protocol: as §2

HCV IRES subdomain IIa [8] = system: HCV IRES subdomain IIa; parameters: method as in PMID 25349403; settings: previous study, cited from earlier work
[9] = 100 nM Cy3/Cy5-labelled RNA, 10 mM HEPES pH 7.0, 2 mM MgCl2, 2% DMSO, ≥ = lower limit

CN(C)CCCn1c(N)nc2ccccc21 [Compound 4]
Kd (HCV IRES subdomain IIa [1]): 100 µM and ≥ 100 µM | EC50 (HCV IRES subdomain IIa [2]): 50 µM | EC50 (HCV IRES subdomain IIa [3]; [9]): 0.078 ± 0.035 mM | FRET result in presence of competing total RNA, in words [4]: lower EC50-values

CN(C)CCCNc1ccc2nc(N)oc2c1 [Compound 6]
EC50 (HCV IRES subdomain IIa [2]): 25 µM

NC1=Nc2ccccc2C2(CC2)N1 [Compound 7]
EC50 (HCV IRES subdomain IIa [2]): 100 µM

CCOc1ccc2c(C)nc(NC(=N)NC)nc2c1 [Compound 8]
Kd (HCV IRES subdomain IIa [5]): ≥ 440 µM | EC50 (HCV IRES subdomain IIa [3]; [9]): 0.413 ± 0.097 mM

CCOc1ccc2c(C)nc(NC(=N)N)nc2c1 [Compound 8a]
Kd (HCV IRES subdomain IIa [5]): 189 ± 20 µM | EC50 (HCV IRES subdomain IIa [3]; [9]): 0.088 ± 0.012 mM

CNC(=N)Nc1nc(C)c2ccc(OC)cc2n1 [Compound 8b]
lipophilic ligand efficiency LLE (HCV IRES subdomain IIa [5]): 2.9 | Kd (HCV IRES subdomain IIa [5]): 88 ± 2 µM | EC50 (HCV IRES subdomain IIa [3]; [9]): 0.061 ± 0.019 mM

COc1ccc2c(C)nc(NC(=N)N)nc2c1 [Compound 8c]
Kd (HCV IRES subdomain IIa [5]): 134 ± 43 µM | EC50 (HCV IRES subdomain IIa [3]; [9]): 0.12 ± 0.024 mM

Nc1nc(N2CCN(Cc3c(Cl)ccc(O)c3Cl)CC2)cc(=O)[nH]1 [Compound 9]
MST KD (HCV IRES subdomain IIa [5]): n.b. | SAM-VI-riboswitch binding (MST-shift), in words ([6]; 1000, 100, 10 and 0.001 μM): no MST shift; also recorded: no binding; also recorded: no general RNA-promiscuity | Kd ([7]; 20 nM Cy5-labelled aptamer, read-out: KD preQ1 riboswitch (MST)): 7.8 µM | preQ1-riboswitch binding / selectivity (MST-shift), in words [7]: Weak preQ1-riboswitch binding; also recorded: binding to the preQ1-riboswitch at very high concentrations | EC50 (HCV IRES subdomain IIa [3]; [9]): 0.217 ± 0.041 mM | FRET-signal change / conformational change of HCV IRES subdomain IIa, in words (HCV IRES subdomain IIa [3]): signals in the FRET assay | FRET result in presence of competing total RNA, in words [4]: lower EC50-values; also recorded: reduced

NC(=O)c1c[nH]c2ccc(NC(=O)CCc3cc4n(n3)CCCNC4)cc12 [Compound 10]
MST KD (HCV IRES subdomain IIa [5]): n.b. | EC50 (HCV IRES subdomain IIa [3]; [9]): ≥ 0.5 mM | Cy3-emission change in FRET assay, in words (HCV IRES subdomain IIa [3]; Cy3 emission at 535 nm): no increase of Cy3-emission | FRET-signal change / conformational change of HCV IRES subdomain IIa, in words (HCV IRES subdomain IIa [3]): signals in the FRET assay

CC(C)NCC(O)COc1ccc2[nH]cc(CCN)c2c1 (centres unmarked) [Compound 11]
Kd (HCV IRES subdomain IIa [5]): ≥ 100 µM | EC50 (HCV IRES subdomain IIa [3]; [9]): ≥ 0.5 mM

Nc1cc(-c2ccc3[nH]ncc3c2)c2cc[nH]c2n1 [Compound 12]
Kd (HCV IRES subdomain IIa [5]): ≥ 50 µM | EC50 (HCV IRES subdomain IIa [3]; [9]): ≥ 0.3 mM

NC1=NC(c2cn[nH]c2-c2cccc(O)c2)n2c(nc3ccccc32)N1 (centres unmarked) [Compound 13]
Kd (HCV IRES subdomain IIa [5]): ≥ 100 µM | EC50 (HCV IRES subdomain IIa [3]; [9]): ≥ 1 mM | EC50 (HCV IRES subdomain IIa [3]; as printed in text in mM): ≥ 1 mM

NC1=Nc2nc3ccccc3n2C(C2CC2)N1 (centres unmarked) [Compound 18]
FRET-signal change / conformational change of HCV IRES subdomain IIa, in words (HCV IRES subdomain IIa [3]): no large changes in FRET-signals; also recorded: no changes in the FRET-assay

COc1cccc(C2NC(N)=Nc3nc4ccccc4n32)c1 (centres unmarked) [Compound 21]
FRET-signal change / conformational change of HCV IRES subdomain IIa, in words (HCV IRES subdomain IIa [3]): no large changes in FRET-signals; also recorded: no changes in the FRET-assay

NC1=NC(c2ccccc2)n2c(nc3ccccc32)N1 (centres unmarked) [Compound 22]
FRET-signal change / conformational change of HCV IRES subdomain IIa, in words (HCV IRES subdomain IIa [3]): no large changes in FRET-signals; also recorded: no changes in the FRET-assay

N=C(N)NC(=O)c1nc(Cl)c(N)nc1N [Compound 26, amiloride, reference compound]
Kd (HCV IRES subdomain IIa [5]): ≥ 100 µM | binding to HCV IRES subdomain IIa (MST-shift), in words (HCV IRES subdomain IIa [5]): some weak binding | preQ1-riboswitch binding / selectivity (MST-shift), in words [7]: selectivity over the preQ1-riboswitch | EC50 (HCV IRES subdomain IIa [3]; [9]): ≥ 0.5 mM

CN(C)C(=O)COC(=O)Cc1ccc(OC(=O)c2ccc(NC(=N)N)cc2)cc1 [Compound 27, Camostat, reference compound]
binding to HCV IRES subdomain IIa (MST-shift), in words (HCV IRES subdomain IIa [5]): no binding | FRET-signal change / conformational change of HCV IRES subdomain IIa, in words (HCV IRES subdomain IIa [3]): no binding

Nc1nc2[nH]cnc2c(=O)[nH]1 [G]
HCV IRES subdomain IIa binding, in words (HCV IRES subdomain IIa [8]): weak binding behavior | EC50 (HCV IRES subdomain IIa [8]; read-out: EC50 HCV IRES subdomain IIa binding): 1050 µM

C[S+](CC[C@H](N)C(=O)[O-])C[C@H]1O[C@@H](n2cnc3c(N)ncnc32)[C@H](O)[C@@H]1O (some centres unmarked) [SAM, reference compound]
Kd ([6]; positive control, read-out: KD of positive control binding to SAM-VI-riboswitch (MST)): 0.772 µM

N=C(N)NCCC[C@H](N)C(=O)O [arginine]
HCV IRES subdomain IIa binding, in words (HCV IRES subdomain IIa [8]): no binding

NCc1c[nH]c2nc(N)[nH]c(=O)c12 [preQ1]
Kd ([7]; positive control, read-out: KD of positive control binding to preQ1-riboswitch (MST)): 0.012 µM
